± gives the expanded uncertainty stated by the source.
Assay: molar heat capacity at constant pressure; mn = molality of the nth substance listed, in mol/kg
Conditions: 101 kPa, Liquid, Large sample (1 g) DSC

CCCCCC[N+](C)(C)C.[Br-] [hexyltrimethylammonium bromide] + O
molar heat capacity at constant pressure [J/K/mol]
Conditions | 298.15 K | 303.15 K | 308.15 K | 313.15 K
m1 = 0.01002 | 75.42 ± 1.3 | 75.39 ± 1.3 | 75.38 ± 1.3 | 75.39 ± 1.3
m1 = 0.02406 | 75.57 ± 1.3 | 75.55 ± 1.3 | 75.54 ± 1.3 | 75.55 ± 1.3
m1 = 0.03 | 75.65 ± 1.3 | 75.62 ± 1.3 | 75.61 ± 1.3 | 75.63 ± 1.3
m1 = 0.03989 | 75.72 ± 1.3 | 75.7 ± 1.3 | 75.69 ± 1.3 | 75.69 ± 1.3
m1 = 0.045 | 75.7 ± 1.3 | 75.68 ± 1.3 | 75.67 ± 1.3 | 75.7 ± 1.3
m1 = 0.04985 | 75.78 ± 1.3 | 75.76 ± 1.3 | 75.75 ± 1.3 | 75.76 ± 1.3
m1 = 0.05497 | 75.82 ± 1.3 | 75.79 ± 1.3 | 75.78 ± 1.3 | 75.8 ± 1.3
m1 = 0.05996 | 75.89 ± 1.3 | 75.86 ± 1.3 | 75.86 ± 1.3 | 75.87 ± 1.3
m1 = 0.07507 | 75.97 ± 1.3 | 75.95 ± 1.3 | 75.94 ± 1.3 | 75.95 ± 1.3
m1 = 0.07976 | 76.04 ± 1.3 | 76.02 ± 1.3 | 76.02 ± 1.3 | 76.02 ± 1.3
m1 = 0.09 | 76.13 ± 1.3 | 76.11 ± 1.3 | 76.11 ± 1.3 | 76.12 ± 1.3
m1 = 0.09694 | 76.14 ± 1.3 | 76.12 ± 1.3 | 76.11 ± 1.3 | 76.13 ± 1.3
m1 = 0.11 | 76.31 ± 1.3 | 76.29 ± 1.3 | 76.28 ± 1.3 | 76.3 ± 1.3
m1 = 0.1199 | 76.37 ± 1.3 | 76.35 ± 1.3 | 76.35 ± 1.3 | 76.36 ± 1.3
m1 = 0.1251 | 76.39 ± 1.3 | 76.36 ± 1.3 | 76.36 ± 1.3 | 76.38 ± 1.3
m1 = 0.1301 | 76.52 ± 1.3 | 76.51 ± 1.3 | 76.51 ± 1.3 | 76.52 ± 1.3
m1 = 0.14 | 76.58 ± 1.3 | 76.56 ± 1.3 | 76.55 ± 1.3 | 76.57 ± 1.3
m1 = 0.1502 | 76.59 ± 1.3 | 76.57 ± 1.3 | 76.57 ± 1.3 | 76.58 ± 1.3
m1 = 0.1751 | 76.79 ± 1.3 | 76.78 ± 1.3 | 76.77 ± 1.3 | 76.78 ± 1.3
m1 = 0.1993 | 77 ± 1.3 | 76.98 ± 1.3 | 76.98 ± 1.3 | 77 ± 1.3
m1 = 0.2248 | 77.21 ± 1.3 | 77.19 ± 1.3 | 77.19 ± 1.3 | 77.21 ± 1.3
m1 = 0.2507 | 77.41 ± 1.3 | 77.4 ± 1.3 | 77.41 ± 1.3 | 77.43 ± 1.3
m1 = 0.2757 | 77.59 ± 1.3 | 77.58 ± 1.3 | 77.59 ± 1.3 | 77.61 ± 1.3
m1 = 0.2801 | 77.65 ± 1.3 | 77.64 ± 1.3 | 77.66 ± 1.3 | 77.71 ± 1.3
m1 = 0.2851 | 77.71 ± 1.3 | 77.7 ± 1.3 | 77.69 ± 1.3 | 77.71 ± 1.3
m1 = 0.2996 | 77.82 ± 1.3 | 77.8 ± 1.3 | 77.8 ± 1.3 | 77.83 ± 1.3
m1 = 0.3222 | 78.01 ± 1.4 | 78 ± 1.4 | 78.01 ± 1.4 | 78.06 ± 1.4
m1 = 0.3311 | 78.06 ± 1.4 | 78.05 ± 1.4 | 78.06 ± 1.4 | 78.09 ± 1.4
m1 = 0.3512 | 78.21 ± 1.4 | 78.21 ± 1.4 | 78.21 ± 1.4 | 78.23 ± 1.4
m1 = 0.4002 | 78.59 ± 1.4 | 78.59 ± 1.4 | 78.6 ± 1.4 | 78.64 ± 1.4
m1 = 0.4258 | 78.85 ± 1.4 | 78.84 ± 1.4 | 78.84 ± 1.4 | 78.86 ± 1.4
m1 = 0.4503 | 79 ± 1.4 | 78.99 ± 1.4 | 79 ± 1.4 | 79.02 ± 1.4
m1 = 0.4998 | 79.37 ± 1.4 | 79.37 ± 1.4 | 79.38 ± 1.4 | 79.41 ± 1.4
m1 = 0.5263 | 79.58 ± 1.4 | 79.57 ± 1.4 | 79.58 ± 1.4 | 79.61 ± 1.4
m1 = 0.5513 | 79.72 ± 1.4 | 79.73 ± 1.4 | 79.75 ± 1.4 | 79.77 ± 1.4
m1 = 0.5742 | 79.94 ± 1.4 | 79.95 ± 1.4 | 79.96 ± 1.4 | 79.98 ± 1.4
m1 = 0.6007 | 80.15 ± 1.4 | 80.16 ± 1.4 | 80.18 ± 1.4 | 80.22 ± 1.4
m1 = 0.6516 | 80.55 ± 1.4 | 80.56 ± 1.4 | 80.57 ± 1.4 | 80.59 ± 1.4
m1 = 0.701 | 80.9 ± 1.4 | 80.91 ± 1.4 | 80.92 ± 1.4 | 80.95 ± 1.4
m1 = 0.7517 | 81.28 ± 1.4 | 81.29 ± 1.4 | 81.31 ± 1.4 | 81.33 ± 1.4
m1 = 0.8016 | 81.66 ± 1.4 | 81.67 ± 1.4 | 81.68 ± 1.4 | 81.71 ± 1.4
m1 = 0.8842 | 82.28 ± 1.4 | 82.29 ± 1.4 | 82.31 ± 1.4 | 82.33 ± 1.4
m1 = 0.9496 | 82.77 ± 1.4 | 82.78 ± 1.4 | 82.79 ± 1.4 | 82.81 ± 1.4
m1 = 0.9915 | 83.01 ± 1.4 | 83.02 ± 1.4 | 83.05 ± 1.4 | 83.08 ± 1.4
